Patent US12551564B2, “IRAK degraders and uses thereof” (Kymera Therapeutics, Inc., priority 2019, dated 2026)
Read-outs that look alike come from different tables or passages of the source.

Columns and labels:
IRAK4 = molecular target: T1, IRAK4 (Homo sapiens, UniProt Q9NWZ3); experiment: IRAK4 degradation in OCI-LY10 (MSD); assay type: cell-based; conditions: OCI-LY10 cells
T1 construct: endogenous in cells; host or cells: OCI-LY10
T1 sequence (Q9NWZ3 1-460): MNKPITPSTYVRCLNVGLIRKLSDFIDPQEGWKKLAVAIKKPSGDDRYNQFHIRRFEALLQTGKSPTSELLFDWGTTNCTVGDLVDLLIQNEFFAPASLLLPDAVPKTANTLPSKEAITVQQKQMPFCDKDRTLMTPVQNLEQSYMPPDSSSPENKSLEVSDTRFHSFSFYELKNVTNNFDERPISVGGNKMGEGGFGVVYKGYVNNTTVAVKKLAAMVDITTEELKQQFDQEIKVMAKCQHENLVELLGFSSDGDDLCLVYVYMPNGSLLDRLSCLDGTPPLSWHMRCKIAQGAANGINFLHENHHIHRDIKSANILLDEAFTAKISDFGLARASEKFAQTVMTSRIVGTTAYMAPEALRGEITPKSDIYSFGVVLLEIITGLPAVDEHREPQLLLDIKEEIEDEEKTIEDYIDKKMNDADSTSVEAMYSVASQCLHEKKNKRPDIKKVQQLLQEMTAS
Procedure: IRAK4 degradation in OCI-LY10 (MSD)
Degradation of IRAK4 in OCI-LY10 was quantitatively measured using Meso Scale Discovery technology. OCI-LY10 cells were seeded in 96-well plates (Corning 3799) with a density of 300,000 cells per well in 100 μL fresh media. Compounds were then added to the assay plates with a final top concentration of 1 to 10 μM in a 1:3 dilution series with total of 8 doses. The assay plates were then incubated for 4 to 24 hours at 37° C. under 5% CO2. The assay plates were then centrifuged for 5 minutes and the cell pellets were treated with 100 μL/well RIPA lysis buffer (Boston BioProducts BP-115D) with proteinase inhibitors. To prepare MSD assay plates (Meso Scale Discovery Catalog number L15XA-3), the plates were coated with 2 μg/mL capture antibody (mouse Anti-IRAK4 antibody [2H9], ab119942) in PBS, at 40 μL/well. The plates were then incubated overnight at 4° C., washed 3 times with 150 μL/well TBST buffer (Cell Signaling Technology, Catalog number 9997S) and blocked with 150 μL well blocking buffer (Meso Scale Discovery Catalog number R93BA-4). Cell lysates were then added to MSD assay plates and the plates were incubated at room temperature for 1 hour. The plates were then washed 3 times with 150 μL/well TBST buffer and 25 μL/well primary detection antibody (rabbit Anti-IRAK4 antibody [Y279], from Abcam. Catalog number ab32511, 1 μg/mL). The assay plates were then incubated at room temperature for 1 hour, washed 3 times with 150 TBST buffer and 25A/well secondary detection antibody, SULFO-TAG anti-rabbit antibody were added (anti rabbit antibody from Meso Scale Discovery, Catalog number R32AB-1, 1 μg/mL). The assay plates were then incubated at room temperature for 1 hour, washed 3 times with 150 TBST buffer, and 150 MSD reading buffer (Meso Scale Discovery catalog number R92TC-2) was added. The plates were then analyzed by a MSD reader (Meso Scale Discovery, Model Quick Plex SQ 120). The data was then analyzed by software Prism 7.0 from GraphPad and the dose-depended IRAK4 degradation were fit using a three-parameter logistic equation to calculate DC50.

OCI-LY10 = experiment: CTG Cell Viability Assay - OCI-LY10 (CellTiter-Glo); assay type: cell-based; conditions: Homo sapiens, 96 h; OCI-LY10 cells, 4 days incubation; read-out: CTG Cell Viability Assay-OCI-LY100: Average external-IC50
Procedure: Cell viability assay with OCI-LY10 and TMD8
Compound-mediated viability effect on OCI-LY10 or TMD8 were quantitatively determined using the CellTiter-Glo® Luminescent Cell Viability Assay kit from Promega (Catalog number G7570) following manufacturer's recommended procedures. Briefly, OCI-LY10 or TMD8 cells is seeded into 384 well plates (Grenier Bio-One, Catalog number 781080) with a density of 10,000 cells per well. Compounds were then added to the assay plate with final top concentration of 10 μM and 1:3 dilution series with total of 9 doses. The final DMSO concentration was normalized to 0.2%. The assay plates were incubated at 37° C. for 4 days under 5% CO2. Then the assay plate was equilibrated at room temperature for 10 minutes. To determine cell viability, 30 μL CellTiter Glo reagent was added to each well and the assay plate was centrifuged at 1000 rpm for 30 second, incubated at room temperature for 10 min, and analyzed by detecting the luminescence using a multimode plate reader (EnVision 2105, PerkinElmer). The data was then analyzed by software Prism 7.0 from GraphPad and the dose response curves were fit using a three-parameter logistic equation to calculate IC50.

[1] = 24 hrs incubation, read-out: IRAK4 MSD degradation in OCI-LY10 at 24 hrs: Average external-Abs DC50
[2] = 4 hrs incubation, read-out: IRAK4 MSD degradation in OCI-LY10 at 4 hrs: Average external-Abs DC50

Structure (SMILES)	DC50 (IRAK4; [1]) [nM]	IC50 (OCI-LY10) [nM]	DC50 (IRAK4; [2]) [nM]
CN(CCCCOc1ccc(Oc2ccc(N(Cc3ccccc3)C(=O)CCl)cc2)cc1)C[C@H]1CC[C@H](n2cc(N(C)C(=O)c3coc(-c4ccnc(NCC5CC5)c4)n3)c(C(F)F)n2)CC1 [I-12]	> 1000	500 to 1000	–
CN(CCCCCCCNC(=O)COc1ccc2c(c1)CCCN2C(=O)CCl)C[C@H]1CC[C@H](n2cc(NC(=O)c3coc(-c4ccnc(NCC5CC5)c4)n3)c(C(F)F)n2)CC1 [I-3]	> 1000	> 1000	> 1000
CN(CCCCCCCCCCOc1ccc(Oc2ccc(N(Cc3ccccc3)C(=O)CCl)cc2)cc1)C[C@H]1CC[C@H](n2cc(NC(=O)c3coc(-c4ccnc(NCC5CC5)c4)n3)c(C(F)F)n2)CC1 [I-8, N-(1-((1r,4r)-4-(((10-(4-(4-(N-benzyl-2-chloroacetamido)phenoxy)phenoxy)decyl)(methyl)amino)methyl)cyclohexyl)-3-(difluoromethyl)-1H-pyrazol-4-yl)-2-(2-((cyclopropylmethyl)amino)pyridin-4-yl)oxazole-4-carboxamide]	100 to 1000	500 to 1000	> 1000
CN(CCCNC(=O)COc1ccc2c(c1)CCCN2C(=O)CCl)C[C@H]1CC[C@H](n2cc(NC(=O)c3coc(-c4ccnc(NCC5CC5)c4)n3)c(C(F)F)n2)CC1 [I-1, N-(1-((1r,4r)-4-(((3-(2-((1-(2-chloroacetyl)-1,2,3,4-tetrahydroquinolin-6-yl)oxy)acetamido)propyl)(methyl)amino)methyl)cyclohexyl)-3-(difluoromethyl)-1H-pyrazol-4-yl)-2-(2-((cyclopropylmethyl)amino)pyridin-4-yl)oxazole-4-carboxamide]	> 1000	> 1000	> 1000
CN(CCCCCCOc1ccc(Oc2ccc(N(Cc3ccccc3)C(=O)CCl)cc2)cc1)C[C@H]1CC[C@H](n2cc(NC(=O)c3coc(-c4ccnc(NCC5CC5)c4)n3)c(C(F)F)n2)CC1 [I-6]	> 1000	500 to 1000	> 1000
CN(CCCCCNC(=O)COc1ccc2c(c1)CCCN2C(=O)CCl)C[C@H]1CC[C@H](n2cc(NC(=O)c3coc(-c4ccnc(NCC5CC5)c4)n3)c(C(F)F)n2)CC1 [I-2]	> 1000	> 1000	> 1000
CN(CCCCCCCCCNC(=O)COc1ccc2c(c1)CCCN2C(=O)CCl)C[C@H]1CC[C@H](n2cc(NC(=O)c3coc(-c4ccnc(NCC5CC5)c4)n3)c(C(F)F)n2)CC1 [I-4]	> 1000	> 1000	–
COCC(=O)N(Cc1ccccc1)c1ccc(Oc2ccc(OCCCCN(C)C[C@H]3CC[C@H](n4cc(NC(=O)c5coc(-c6ccnc(NCC7CC7)c6)n5)c(C(F)F)n4)CC3)cc2)cc1 [I-11]	> 1000	500 to 1000	–
COCC(=O)N1CCCc2cc(OCC(=O)NCCCCCN(C)C[C@H]3CC[C@H](n4cc(NC(=O)c5coc(-c6ccnc(NCC7CC7)c6)n5)c(C(F)F)n4)CC3)ccc21 [I-9, 2-[2-(cyclopropylmethylamino)-4-pyridyl]-N-[3-(difluoromethyl)-1-[4-[[5-[[2-[[1-(2-methoxyacetyl)-3,4-dihydro-2H-quinolin-6-yl]oxy]acetyl]amino]pentyl-methyl-amino]methyl]cyclohexyl]pyrazol-4-yl]oxazole-4-carboxamide]	> 1000	> 1000	> 1000
CN(CCCCOc1ccc(Oc2ccc(N(Cc3ccccc3)C(=O)CCl)cc2)cc1)C[C@H]1CC[C@H](n2cc(NC(=O)c3coc(-c4ccnc(NCC5CC5)c4)n3)c(C(F)F)n2)CC1 [I-5]	> 1000	> 1000	> 1000
CN(CCCCCCCCOc1ccc(Oc2ccc(N(Cc3ccccc3)C(=O)CCl)cc2)cc1)C[C@H]1CC[C@H](n2cc(NC(=O)c3coc(-c4ccnc(NCC5CC5)c4)n3)c(C(F)F)n2)CC1 [I-7]	100 to 1000	500 to 1000	> 1000
